The first data set can be described thus: UVvis maximum absorption wavelength of selected dyes (Table 1). In kind it is physicochemical. As to conditions: source not stated.
In turn, `c1ccc2c(c1)-c1nc-2nc2[nH]c(nc3nc(nc4[nH]c(n1)c1ccccc41)-c1ccccc1-3)c1ccccc21` [Phthalocyanine] registered a UVvis maximum of 698 nm.

“2,11,20,29-Tetra-tert-butyl-2,3-naphthalocyanine” registered a UVvis maximum of 712 nm.

For `CCCCOc1ccc(OCCCC)c2c1-c1nc3nc(nc4[nH]c([nH]c5nc(nc-2n1)-c1c(OCCCC)ccc(OCCCC)c1-5)c1c(OCCCC)ccc(OCCCC)c41)-c1c(OCCCC)ccc(OCCCC)c1-3` [1,4,8,11,15,18,22,25-Octabutoxy-29H,31H-phthalocyanine], the UVvis maximum turned out to be 762 nm.

`C#CCNC(=O)CCCCCN1C(=CC=CC=CC2=[N+](C)c3ccc4ccccc4c3C2(C)C)C(C)(C)c2c1ccc1ccccc21.[Cl-]` [Cy5.5-alkyne]: the UVvis maximum came to 684 nm.

Regarding `CC(C)(C)c1ccc2c(c1)-c1nc3nc(nc4[nH]c(nc5[nH]c(nc-2n1)c1cc(C(C)(C)C)ccc51)c1cc(C(C)(C)C)ccc41)-c1ccc(C(C)(C)C)cc1-3` [2,9,16,23-Tetra-tert-butyl-29H,31H-phthalocyanine], the UVvis maximum was 696 nm.

On to Cy7-alkyne, for which the UVvis maximum worked out at 750 nm.

With `C#CCNC(=O)CCCCCN1C(=CC=CC=CC2=[N+](C)c3ccccc3C2(C)C)C(C)(C)c2ccccc21.[Cl-]` [Cy5-alkyne], the UVvis maximum came to 646 nm.

The compound `C#CCNC(=O)CCCCCN1/C(=C/C=C2C=C(/C=C/C3=[N+](C)c4ccc5ccccc5c4C3(C)C)CCC/2)C(C)(C)c2c1ccc1ccccc21.[Cl-]` [Cy7.5-alkyne] registered a UVvis maximum of 788 nm.

In turn, `CCC1=C(CC)c2cc3[nH]c(cc4nc(cc5[nH]c(cc1n2)c(CC)c5CC)C(CC)=C4CC)c(CC)c3CC` [2,3,7,8,12,13,17,18-Octaethyl-21H,23H-porphine] registered a UVvis maximum of 401 nm.

In turn, `C1=Cc2nc1c(-c1ccccc1)c1ccc([nH]1)c(-c1ccccc1)c1nc(c(-c3ccccc3)c3ccc([nH]3)c2-c2ccccc2)C=C1` [5,10,15,20-Tetraphenyl-21H,23H-porphine] registered a UVvis maximum of 514 nm.

`CCCCOc1c2c(c(OCCCC)c3ccccc13)-c1nc-2nc2[nH]c(nc3nc(nc4[nH]c(n1)c1c(OCCCC)c5ccccc5c(OCCCC)c41)-c1c-3c(OCCCC)c3ccccc3c1OCCCC)c1c(OCCCC)c3ccccc3c(OCCCC)c21` [5,9,14,18,23,27,32,36-Octabutoxy-2,3-naphthalocyanine] came in with a UVvis maximum of 784 nm.

Take `CCCCCCCCOc1cc2c(cc1OCCCCCCCC)-c1nc-2nc2[nH]c(nc3nc(nc4[nH]c(n1)c1cc(OCCCCCCCC)c(OCCCCCCCC)cc41)-c1cc(OCCCCCCCC)c(OCCCCCCCC)cc1-3)c1cc(OCCCCCCCC)c(OCCCCCCCC)cc21` [2,3,9,10,16,17,23,24-Octakis(octyloxy)-29H,31H-phthalocyanine]: the UVvis maximum turned out to be 701 nm.

The next data set in a line: Spectroscopic characterization of SSIB-Cy7.5 in SAIB or LOIB markers. In kind it is physicochemical. As to conditions: 0.01% w/w in LOIB:xSAIB:EtOH:D&Cv2.
“6′-(Cyanine 7.5)-Isobutyric Sucrose [SSIB-Cy7.5]”: the “broad emission peak centre” value was 845 nm.

The data set is the same for the next values; noted with them: SAIB:xSAIB:EtOH 70:10:20.
Turning to “6′-(Cyanine 7.5)-Isobutyric Sucrose [SSIB-Cy7.5]”, the “dye concentration up to which emission intensity increased (then self-quenching)” value was 0.003 % w/w.

Staying with this data set, now noted: UVvis in LOIB:xSAIB:EtOH:D&Cv2; 0.1% w/w D&Cv2, 0.01% w/w SSIB-Cy7.5.
With `Cc1ccc(Nc2ccc(O)c3c2C(=O)c2ccccc2C3=O)cc1` [D&Cv2], the absorption peak is on record as 590 nm.

For the origin of these results see patent US20210275692A1, “SOLUTION COMPRISING FLUORESCENT DYE AS FIDUCIAL MARKER” (DANMARKS TEKNISKE UNIVERSITET, priority 2018, published 2021).
